The target of series [1] is Cytochrome P450 2D6 (Homo sapiens, UniProt P10635). In words: Inhibition of CYP2D6 (unknown origin). The format is ADME.
Series [2] can be described thus: Unbound volume of distribution at steady state in rat. Type of series: ADME. The note with it: in vivo.
The nature of series [3]: Clearance in rat. Type of series: ADME. Conditions: in vivo.
Series [4] has as its target T1, 5-hydroxytryptamine receptor 3A (Homo sapiens, UniProt P46098).
T1 sequence (P46098 whole entry): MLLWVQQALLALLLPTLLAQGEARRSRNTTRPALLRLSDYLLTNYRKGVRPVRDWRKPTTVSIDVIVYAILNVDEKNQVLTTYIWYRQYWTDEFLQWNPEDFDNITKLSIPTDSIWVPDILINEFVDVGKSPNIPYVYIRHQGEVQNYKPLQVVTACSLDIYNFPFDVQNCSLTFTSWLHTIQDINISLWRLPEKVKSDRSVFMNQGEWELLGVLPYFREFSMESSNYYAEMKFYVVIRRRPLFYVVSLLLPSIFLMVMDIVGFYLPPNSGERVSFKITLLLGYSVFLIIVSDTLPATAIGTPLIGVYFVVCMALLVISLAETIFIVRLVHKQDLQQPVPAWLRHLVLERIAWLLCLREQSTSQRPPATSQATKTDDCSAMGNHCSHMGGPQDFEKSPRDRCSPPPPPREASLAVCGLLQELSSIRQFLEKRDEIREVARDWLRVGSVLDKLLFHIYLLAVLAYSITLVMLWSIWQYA
In words: Antagonist activity at human 5HT3A expressed in HEK293 cells incubated for 1 hr by FLIPR assay. The format is cell-based.

Series [5] has as its target Cytochrome P450 2C9 (Homo sapiens, UniProt P11712). In words: Inhibition of CYP2C9 (unknown origin). Type of series: ADME.
Series [6] can be described thus: Solubility of compound at pH 7 by HPLC method. The format is physicochemical. The note with it: buffer.
Series [7] is described as follows: Clearance in dog. The format is ADME, Canis lupus familiaris. The note with it: in vivo.
Series [8] is filed under the species Homo sapiens. In words: Selectivity ratio of IC50 for human 5HT3A to IC50 for GCS (unknown origin).
Series [9] addresses Neuronal acetylcholine receptor subunit alpha-3 (Homo sapiens, UniProt P30926+P32297). Nature of the series: Inhibition of human alpha3beta4 nAChR.
Series [10] is described as follows: Intrinsic clearance in dog. The format is ADME, Canis lupus familiaris.
The nature of series [11]: Unbound fraction in human plasma. Type of series: ADME, cell-free.
The target of series [12] is T2, Ceramide glucosyltransferase (Mus musculus, UniProt O88693).
T2 sequence (O88693 whole entry): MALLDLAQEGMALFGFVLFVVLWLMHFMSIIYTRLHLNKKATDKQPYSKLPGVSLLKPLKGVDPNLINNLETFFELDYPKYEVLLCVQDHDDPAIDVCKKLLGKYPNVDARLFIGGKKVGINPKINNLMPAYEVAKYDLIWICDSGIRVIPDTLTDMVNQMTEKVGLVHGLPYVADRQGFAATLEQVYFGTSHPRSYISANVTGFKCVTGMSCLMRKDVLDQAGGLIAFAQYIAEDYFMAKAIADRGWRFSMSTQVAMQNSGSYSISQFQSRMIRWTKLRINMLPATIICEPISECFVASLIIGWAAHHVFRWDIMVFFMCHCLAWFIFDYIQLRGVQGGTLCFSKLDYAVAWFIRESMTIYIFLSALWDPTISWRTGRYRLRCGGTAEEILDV
Nature of the series: Inhibition of GCS in mouse fibroblast. Type of series: cell-based.

The nature of series [13]: Lipophilicity, logD of compound by HPLC method. Type of series: physicochemical.
A short description of series [14]: Mean residence time in rat at 5 to 10 mg/kg, po or 0.05 to 2 mg/kg, iv. The format is ADME, organism-based. Conditions: in vivo, dose 5-10 mg/kg.
Series [15] can be described thus: Half life in rat. The format is ADME. The note with it: in vivo.
A short description of series [16]: Unbound fraction in dog plasma. The format is ADME, cell-free, Canis lupus familiaris.
A short description of series [17]: Bioavailability in rat. The format is ADME, organism-based. Conditions: in vivo.
Series [18] can be described thus: Bioavailability in dog. Type of series: ADME, organism-based, Canis lupus familiaris. Conditions: in vivo.
Series [19] concerns the target T3, mouse BCRP (ABCG2) (Mus musculus, UniProt Q7TMS5).
T3 sequence (Q7TMS5 whole entry): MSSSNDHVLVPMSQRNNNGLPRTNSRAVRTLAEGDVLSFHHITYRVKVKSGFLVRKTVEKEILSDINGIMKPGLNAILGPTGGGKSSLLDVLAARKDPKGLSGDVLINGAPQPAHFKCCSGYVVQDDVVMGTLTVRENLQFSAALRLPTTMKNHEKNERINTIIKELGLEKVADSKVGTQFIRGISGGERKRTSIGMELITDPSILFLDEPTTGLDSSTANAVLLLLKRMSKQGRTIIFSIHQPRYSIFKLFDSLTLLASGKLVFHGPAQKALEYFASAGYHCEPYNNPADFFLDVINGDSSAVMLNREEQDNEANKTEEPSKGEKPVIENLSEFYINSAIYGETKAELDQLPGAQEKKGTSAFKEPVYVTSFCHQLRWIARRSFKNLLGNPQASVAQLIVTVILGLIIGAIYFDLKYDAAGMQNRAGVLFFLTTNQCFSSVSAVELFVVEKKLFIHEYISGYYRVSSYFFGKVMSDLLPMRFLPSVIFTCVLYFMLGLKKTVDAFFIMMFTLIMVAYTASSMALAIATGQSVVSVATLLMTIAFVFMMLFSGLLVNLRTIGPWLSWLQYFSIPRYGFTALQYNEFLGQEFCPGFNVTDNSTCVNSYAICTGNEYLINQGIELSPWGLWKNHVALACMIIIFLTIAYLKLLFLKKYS
Nature of the series: Substrate activity at mouse BCRP assessed as apparent permeability at 1 uM. Type of series: ADME. Conditions: not told.

The nature of series [20]: Intrinsic clearance in rat. The format is ADME.
The test system of series [21] is rat P-gp. In words: Substrate activity at rat P-gp assessed as efflux ratio at 1 uM. Type of series: ADME. The note with it: not told.
The target of series [22] is T4, Ceramide glucosyltransferase (Homo sapiens, UniProt Q16739).
T4 sequence (Q16739 whole entry): T2 sequence (O88693 whole entry) with Q8L, L13V, V20L, S29A, A131G, S196Y, S251A
In words: Inhibition of GCS in human fibroblast. The format is cell-based.

Structures are written as SMILES. Residue numbers refer to the chain shown, from its start. ≈ marks a conversion by molar mass, not a printed value.

Cytochrome P450 2C9, sequence (P11712 whole entry): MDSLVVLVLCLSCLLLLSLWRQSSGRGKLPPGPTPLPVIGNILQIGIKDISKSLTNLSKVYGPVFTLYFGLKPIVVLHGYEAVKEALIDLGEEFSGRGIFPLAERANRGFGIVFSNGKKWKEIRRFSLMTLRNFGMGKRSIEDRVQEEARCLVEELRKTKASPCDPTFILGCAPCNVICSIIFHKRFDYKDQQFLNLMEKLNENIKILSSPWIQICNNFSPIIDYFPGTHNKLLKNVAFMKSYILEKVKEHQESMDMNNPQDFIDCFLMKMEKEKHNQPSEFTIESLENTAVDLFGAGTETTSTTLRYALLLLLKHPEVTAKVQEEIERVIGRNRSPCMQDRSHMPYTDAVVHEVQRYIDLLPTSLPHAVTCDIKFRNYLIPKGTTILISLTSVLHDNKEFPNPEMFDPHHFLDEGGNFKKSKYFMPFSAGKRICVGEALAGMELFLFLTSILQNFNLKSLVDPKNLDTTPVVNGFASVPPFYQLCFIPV
Neuronal acetylcholine receptor subunit alpha-3, sequence (P32297 whole entry, one chain of several): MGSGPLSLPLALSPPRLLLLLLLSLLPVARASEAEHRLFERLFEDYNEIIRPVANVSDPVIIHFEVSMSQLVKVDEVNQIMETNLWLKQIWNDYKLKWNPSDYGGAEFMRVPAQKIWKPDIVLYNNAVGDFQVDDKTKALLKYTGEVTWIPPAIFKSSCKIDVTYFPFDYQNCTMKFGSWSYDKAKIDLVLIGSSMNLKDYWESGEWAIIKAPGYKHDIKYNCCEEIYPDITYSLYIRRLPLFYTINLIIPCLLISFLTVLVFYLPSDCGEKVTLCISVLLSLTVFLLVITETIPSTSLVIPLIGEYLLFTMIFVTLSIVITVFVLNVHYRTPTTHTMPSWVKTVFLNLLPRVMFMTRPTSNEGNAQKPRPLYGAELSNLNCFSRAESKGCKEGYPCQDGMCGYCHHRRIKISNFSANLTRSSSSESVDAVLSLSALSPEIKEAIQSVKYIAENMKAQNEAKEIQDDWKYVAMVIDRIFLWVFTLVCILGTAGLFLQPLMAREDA
Cytochrome P450 2D6, sequence (P10635 whole entry): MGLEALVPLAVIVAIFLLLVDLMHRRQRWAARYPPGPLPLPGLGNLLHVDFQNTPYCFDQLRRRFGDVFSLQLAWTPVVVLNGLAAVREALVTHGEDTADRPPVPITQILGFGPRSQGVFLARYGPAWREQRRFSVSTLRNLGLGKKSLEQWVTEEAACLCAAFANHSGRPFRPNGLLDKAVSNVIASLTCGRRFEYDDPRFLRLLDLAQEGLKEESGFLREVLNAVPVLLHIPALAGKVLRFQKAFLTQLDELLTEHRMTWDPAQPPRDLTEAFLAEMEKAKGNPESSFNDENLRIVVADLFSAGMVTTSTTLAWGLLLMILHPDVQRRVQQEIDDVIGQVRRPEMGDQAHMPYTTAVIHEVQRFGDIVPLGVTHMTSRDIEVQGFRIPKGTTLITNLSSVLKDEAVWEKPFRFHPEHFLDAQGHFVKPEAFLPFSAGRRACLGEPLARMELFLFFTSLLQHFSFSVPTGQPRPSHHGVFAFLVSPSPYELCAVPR

For `Cl.O=C(N1CCN2CCC1CC2)n1nc(-n2cc(C(F)(F)F)cn2)c2c1COCC2`, the IC50 in series [1] is above 50000 nM; in series [4], 1970 nM; in series [5] it was above 50000 nM; in series [9] it was 2200 nM; in [12], 17 nM; in series [22], 32 nM. The same compound had a fVdss in series [2] of 16 L/kg. In addition, the clearance is 6.1 mL/min/kg in series [3] and 12 mL/min/kg in series [7]. The compound also returned a solubility in series [6] of 168 µM. Moreover, the Ratio IC50 in series [8] came out at 1100. Further, the CLint scaled was 75 mL/min/kg in [10] and 55 mL/min/kg in [20]. Also, the fraction unbound is 0.03 in [11] and 0.27 in series [16]. In series [13], this compound registered a logD of 2.5. In [14], this compound had a mean residence time (MRT) of 5.3 h. The half-life in series [15] was 3.4 h. In addition, the bioavailability is 95% in [17] and 48% in series [18]. Further, the Papp at 1 µM in series [19] was determined as 31 ×10⁻⁶ cm/s. Moreover, in series [21], the efflux ratio at 1 µM came to 4.6.
Regarding `O=C(N1CCN2CCC1CC2)n1nc(-c2ccc(F)cc2)c2c1COCC2`, the IC50 is above 50000 nM in [1]; 224 nM in [4]; above 50000 nM in series [5]; 2200 nM in series [9]; 21 nM in series [12]; 34 nM in [22]. Further, the fVdss in [2] was found to be 17 L/kg. For the same compound, the clearance is 8.5 mL/min/kg in [3] and 30 mL/min/kg in series [7]. Also, the solubility in [6] was 170 µM (≈ 63 µg/mL). In series [8], the Ratio IC50 is 64. Also, the intrinsic metabolic clearance (CLint scaled) in series [10] is 6870 mL/min/kg; in [20], 90 mL/min/kg. Moreover, the fraction unbound stood at 0.03 in [11] and 0.3 in series [16]. Moreover, the logD in [13] turned out to be 2.2. In series [14], this compound registered an MRT of 3.5 h. This compound also gave a half-life in series [15] of 2.8 h. The figures for the bioavailability in [17] and in series [18] were 73% and 21%, respectively. For the same compound, the Papp at 1 µM in series [19] was determined as 31 ×10⁻⁶ cm/s. The efflux ratio at 1 µM in [21] was 3.4.

Source of the values: ChEMBL document CHEMBL5223177, “Pyrazole Ureas as Low Dose, CNS Penetrant Glucosylceramide Synthase Inhibitors for the Treatment of Parkinson's Disease” (ACS Med Chem Lett, 2023).
